Results taken from patent CN110711192A, “色氨酸增强对革兰氏阴性菌杀菌作用的应用” (Shandong University, priority 2018, dated 2020).
Values after ≈ are worked out from the molar mass of the structure shown.

Tests used:
[1] = tested on: sensitive strain MG1655 [敏感菌株MG1655]; assay: Minimum inhibitory concentration, sensitive strain MG1655; format: cell-based; conditions: Escherichia coli, serial dilution, 96-well plate, broth
[2] = tested on: resistant strain EY1 [抗性菌EY1]; assay: Minimum inhibitory concentration, resistant strain EY1; format: cell-based; conditions: serial dilution, 96-well plate, broth
MG1655 [3] = assay: Uptake of Texas Red-labelled gentamicin (flow cytometry); format: cell-based, Escherichia coli; conditions: log and stationary phase, 0, 1, 5, 10 mM tryptophan
MG1655 [4] = assay: Rate of generation of drug-tolerant bacteria (viable count); format: cell-based, Escherichia coli; conditions: cultures of 3 to 9 h; gentamicin 60 mg/L and kanamycin 40 mg/L 5 h, then various tryptophan concentrations 30 min; concentration-dependent; printed as up to (可达)
[5] = tested on: MG1655 drug-tolerant bacteria [耐药菌]; assay: Killing of drug-tolerant bacteria (viable count); format: cell-based, Escherichia coli; conditions: after gentamicin 60 mg/L or kanamycin 40 mg/L 5 h; then antibiotic + 5 mM tryptophan 5 h; printed as can reach (可以达到)
MG1655 [6] = assay: Intracellular reactive oxygen species (H2DCFDA); format: cell-based, Escherichia coli; conditions: log and stationary phase; 60 mg/L gentamicin alone or with 5 mM tryptophan, 1 h
[7] = tested on: Escherichia coli MG1655 [大肠杆菌MG1655]; assay: Bactericidal effect of antibiotic with or without tryptophan (viable count); format: cell-based

Row | Compound | MIC [1] [µg/mL] | MIC [2] [µg/mL] | bacterial uptake of antibiotic (MG1655 [3]) | reduction of generation of drug-tolerant bacteria (MG1655 [4]) | bactericidal efficiency against drug-tolerant bacteria [5] | intracellular reactive oxygen species level (MG1655 [6]) | increase of bactericidal effect versus group without tryptophan ([7]; 5 mM tryptophan with gentamicin 3 mg/L and MIC 4 mg/L, 24 h, logarithmic phase) [fold] | increase of bactericidal effect ([7]; 5 mM tryptophan with kanamycin 1.5 mg/L to MIC 3.5 mg/L, 24 h, logarithmic phase) | increase of bactericidal efficiency ([7]; stationary phase MG1655, 5 mM tryptophan with gentamicin 60 mg/L or kanamycin 40 mg/L, 1 h per figure legend, 24 h per example) [fold]
1 | NC[C@H]1O[C@H](O[C@H]2[C@H](O)[C@@H](O[C@H]3O[C@H](CO)[C@@H](O)[C@H](N)[C@H]3O)[C@H](N)C[C@@H]2N)[C@H](O)[C@@H](O)[C@@H]1O [卡那霉素] | 3.5 (≈ 7.22 µM) | 220 (≈ 454 µM) | – | – | – | – | – | – | –
2 | N[C@@H](Cc1c[nH]c2ccccc12)C(=O)O [色氨酸] | – | – | 能够提升细菌对于抗生素的吸收,并呈现剂量依赖性 | 10-1000 fold | 80-90% | 能够提高胞内活性氧的水平 | 100 | 10-100 fold | ~10
